In publication PMC6804997 (PLoS ONE, 2019):

Experiments:
[1] = test system: liver, kidney, spleen, heart and lung tissues of mice; test: Histological examination of organs from normal mice given F7; assay type: in vivo; conditions: oral F7 40 mg/kg/d for 3 days, without glycerol injection
Protocol: We firstly examined whether the mice model of glycerol-induced AKI was successfully established, and tested the protective effect of F7 at a dose of 40 mg/kg/d for 3 days on renal function and pathological changes. […] We also evaluated the liver, kidney, spleen, heart and lung tissues of mice with oral administration of F7 at the same dose as that in F7+glycerol group for 3 days, but without glycerol injections.
Supplementary file pone.0224158.s002.tif: S2 Fig Histological examinations of different organs from the normal mice administrated with F7. Photomicrographs (×200) illustrated H&E staining of the heart, liver, spleen, lung and kidney tissues from mice with oral administration of F7 at a dose of 40 mg/kg/d for 3 days but without glycerol injection. (TIF) Click here for additional data file.

HK-2 cells = test: Annexin V/PI flow cytometry of myoglobin-stimulated HK-2 cells; assay type: cell-based, Human; conditions: F7 […], 5 nM and 10 nM; Mb 200 μM, 24 hrs
Protocol: Human renal proximal tubule cell line (HK-2) cells were purchased from Shanghai Institute of Biochemistry and Cell Biology, Shanghai, China and maintained in DMEM/F12 (Hyclone, Beijing, China) supplemented with 10% fetal bovine serum (FBS, Hyclone, Australia) and 1% penicillin and streptomycin at 37°C under humidified atmosphere of 5% carbon dioxide. Then cells were seeded on six-well plates (Shanghai Sunub Bio-Tech Development Inc., Shanghai, China) at a density of 200,000 cells per well, divided into four groups at exponential phase: the control group (cells incubated with DMEM/F12+10%FBS), the model group (cells incubated with 200 μM ferrous myoglobin (M0630, Sigma-Aldrich, St. […]
Cell apoptosis was evaluated by flow cytometry using an Annexin V-FITC apoptosis analysis kit (AO-2001-02P-H, Tianjin Sungene Biotech Co., Ltd, Tianjin, China). After the four group of cells were cultured under the condition as described above for 24 hours, they were digested by trypsin, collected, and washed three times with PBS diluted 1×binding buffer (1ml per tube). […] After being supplemented to 500 μL using cold PBS followed by gentle vortex, samples were ready to be testes. Apoptosis signals were detected using a CytoFLEX by Beckman & Coulter.

[2] = test system: rhabdomyolysis-induced AKI in glycerol-injected mice; test: Glycerol-induced rhabdomyolysis AKI mouse model with F7 pretreatment; assay type: in vivo, C57BL/6 mice
Protocol: After one week of adoption to the housing conditions, the mice were randomly divided into three groups (n = 8): control, glycerol, and glycerol+HDAC6 inhibitor (F7). For the latter two groups, a single intramuscular injection of 50% glycerol dissolved in 0.9% normal saline (10 μl/g) was divided between bilateral back limbs to induce rhabdomyolysis-induced AKI model. The mice in control group received the same dose of saline injection at the place of glycerol. Before glycerol injection, mice in pretreatment group were orally administrated with F7 (dissolved in DEG and diluted with 0.9% saline) at a dose of 40mg/kg/d (200 μl solution for 28g) for 3 days. For control and glycerol groups, mice were treated with the same dose of saline.
All the mice were euthanized via pentobarbital sodium injection (50 mg/kg, i.p.). Terminal blood samples were collected and serum samples were stored at -80°C. Kidney tissues were divided and respectively removed into 10% phosphate buffered formalin for histological staining, and into liquid nitrogen follows by storage at -80°C for further quantitative analysis and immunofluorescence staining.
The serum level of creatinine kinase (CK), blood urea (UREA) and serum creatinine (sCr) were tested using high performance liquid chromatography (HPLC) by Institute of Drug Clinical Trial and the GCP center of West China Hospital of Sichuan University.
Paraffin-embedded kidney tissue samples were cut into 4-um sections and stained with haematoxylin and erosin (H&E) and periodic acid-Schiff (PAS) staining. These sections were viewed using light microscopy at magnifications of ⊆200 and ⊆400 respectively, and semiquantitative estimation of renal tubular damage was performed on a scale from 0 to 4 to grade the percentage of injured/damaged renal tubules: 0 for 0%, 0.5% for <10%, 1 for 10–25%, 2 for 26–50%, 3 for 51–75% and 4 for 76–100%[22]. At least 10 areas were randomly selected in the cortex per slide.
Kidney tissue samples were mounted in O.C.T. compound medium (Tissue-Tek) for cryosectioning (4 μm). Sections were immediately fixed in 10% buffered formalin, washed, dehydrated and stored at -20°C. Before immunofluorescence staining, the tissue sections were rehydrated and blocked with 10% horse medium (diluted with PBS solution) for 1 hour at room temperature and incubated at 4°C overnight with indicated primary antibodies. Then sections were exposed to second antibodies labeled with Cy5 red or FITC green (Jackson ImmunoResearch Inc., West Grove, PA, United States). The nuclei were counterstained with DAPI (1:500, Life Technologies Corporation, OR, United States). The images were captured with AxioCam HRc digital camera (Carl Zeiss).
Kidney tissue or cultured cell samples were sufficiently lysed in the mixture of RIPA buffer (50 mM Tris (pH7.4), 150 mM NaCl, 1% TritonX-100, 1% sodium deoxycholate, 0.1% SDS) containing 4% cocktail proteinase inhibitor (Roche, Switzerland) on ice. After centrifuged at 13,000 rpm for 15 min at 4°C, supernate of the homogenate were collected for protein quantification. Protein equivalent to 50 ug were loaded into 10–12% SDS-PAGE gels for electrophoretic separation, and then transferred to polyvinylidene difluoride (PVDF) membranes (0.2 μm, Bio-Rad Laboratories, Inc.). After protein blotting, membranes were blocks using 5% non-fat dried milk for 1h at room temperature, then probed with primary antibodies at 4°C overnight, and incubated with secondary antibodies for 1h at room temperature. […]

[3] = glycerol+F7 vs glycerol group, F7 40 mg/kg/d oral for 3 days
[4] = western blot, F7 40 mg/kg/d for 3 days

SMILES: Cc1nc(N(C)c2ccc(Oc3ccc(C(=O)NO)cn3)cc2)c2ccccc2n1 [F7, N-hydroxy-6-(4-(methyl(2-methylquinazolin-4-yl)amino)phenoxy)nicotinamide]
- organ damage (histological sections of liver, kidney, spleen, heart and lung) [1]: did not exhibited organ damage
- growth of HK-2 cells under stimulation of myoglobin (HK-2 cells): improved growth of HK-2 cells under stimulation of myoglobin (Mb) in a dose-dependent manner
- IL-β and TNF-α in serum and kidney lysates ([2]; ELISA, F7 40 mg/kg/d for 3 days): decreased
- NGAL expression in tubules (immunofluorescence staining) ([2]; F7 40 mg/kg/d for 3 days): largely diminished
- pathological injuries (tubular damage, H&E and PAS staining) ([2]; F7 40 mg/kg/d oral for 3 days pretreatment): effectively alleviated
- Serum creatine kinase (CK) ([2]; glycerol+F7 group vs control, 24 hours after glycerol injection, F7 40 mg/kg/d oral for 3 days): markedly elevated
- serum creatinine (sCr) [2, 3]: remarkably decreased
- serum urea (UREA) [2, 3]: remarkably decreased
- NGAL mRNA expression and protein expression ([2]; real-time PCR and immunoblot, F7 40 mg/kg/d for 3 days): markedly reduced
- mRNA level of IL-6 and TNF-α in kidney ([2]; real-time PCR, F7 40 mg/kg/d for 3 days): significantly decreased
- expression of HDAC6 in the damaged kidney ([2]; western blot and immunofluorescence, F7 40 mg/kg/d for 3 days): significantly inhibited
- IκBα phosphorylation in kidney [2, 4]: decreased
- NF-κB p65 phosphorylation in kidney [2, 4]: effectively down-regulated
- acetylation of histone H3 and α-tubulin in kidney [2, 4]: enhanced
- p38 phosphorylation in kidney [2, 4]: effectively inhibited
- proinflammatory cytokines IL-6 and IL-β protein levels in kidney [2, 4]: remarkably down-regulated
- total ERK1/2 expression in kidney [2, 4]: effectively inhibited
- ERK1/2 phosphorylation in kidney ([2]; western blot, F7 treatment group): no significant ERK1/2 phosphorylation reduction
